Counter-ions that a name gives are not always drawn.
target: hERG (Homo sapiens, UniProt Q12809); experiment: cell-based; settings: (-LOG10(IC50), µM)
Sequence (Q12809 whole entry): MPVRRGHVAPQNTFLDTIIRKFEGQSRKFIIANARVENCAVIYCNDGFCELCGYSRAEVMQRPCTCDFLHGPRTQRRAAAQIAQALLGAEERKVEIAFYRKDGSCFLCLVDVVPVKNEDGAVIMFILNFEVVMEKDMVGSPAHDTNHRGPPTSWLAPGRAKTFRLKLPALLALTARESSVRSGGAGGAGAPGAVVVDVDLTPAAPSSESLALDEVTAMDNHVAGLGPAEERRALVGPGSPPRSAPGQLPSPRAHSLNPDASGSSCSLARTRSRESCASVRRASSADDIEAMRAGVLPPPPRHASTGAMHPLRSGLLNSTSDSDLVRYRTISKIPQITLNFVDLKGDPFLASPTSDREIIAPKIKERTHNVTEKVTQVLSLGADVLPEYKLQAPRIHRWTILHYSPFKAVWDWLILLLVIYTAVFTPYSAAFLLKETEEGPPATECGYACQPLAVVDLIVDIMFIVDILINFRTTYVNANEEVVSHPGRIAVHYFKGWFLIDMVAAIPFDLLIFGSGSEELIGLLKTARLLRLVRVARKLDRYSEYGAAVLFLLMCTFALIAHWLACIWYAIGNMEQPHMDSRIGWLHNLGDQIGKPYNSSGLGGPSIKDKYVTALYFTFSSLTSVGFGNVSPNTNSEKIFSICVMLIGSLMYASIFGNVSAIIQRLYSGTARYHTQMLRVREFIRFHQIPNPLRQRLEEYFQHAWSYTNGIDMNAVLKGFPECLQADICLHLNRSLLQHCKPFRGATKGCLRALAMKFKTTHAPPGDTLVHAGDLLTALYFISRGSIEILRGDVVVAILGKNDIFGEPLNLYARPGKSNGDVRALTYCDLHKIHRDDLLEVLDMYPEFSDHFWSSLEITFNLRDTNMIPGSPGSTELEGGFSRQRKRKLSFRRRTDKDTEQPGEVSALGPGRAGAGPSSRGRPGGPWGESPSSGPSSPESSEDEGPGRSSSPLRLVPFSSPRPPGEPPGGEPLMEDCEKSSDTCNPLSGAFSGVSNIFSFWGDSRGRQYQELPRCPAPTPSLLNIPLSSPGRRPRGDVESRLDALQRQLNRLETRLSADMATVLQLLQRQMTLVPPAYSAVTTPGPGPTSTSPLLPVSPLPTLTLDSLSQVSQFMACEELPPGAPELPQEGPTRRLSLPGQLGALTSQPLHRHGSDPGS

| SMILES | IC50 [µM] |
| --- | --- |
| CCN(CC)CCOC(=O)C(O)(c1ccccc1)c1ccccc1 [Benactyzine] | 11.5 |
| CC(Cc1cccc(C(F)(F)F)c1)NCCOC(=O)c1ccccc1 (stereo not drawn) [Benfluorex hydrochloride] | 9.52 |
| O=C(CCCN1CCC(n2c(O)nc3ccccc32)CC1)c1ccc(F)cc1 [Benperidol] | 1.76 |
| CCc1oc2ccccc2c1C(=O)c1cc(Br)c(O)c(Br)c1 [Benzbromarone] | 10.7 |
| c1ccc(CSCc2ccccc2)cc1 [Benzyl sulfide] | 47 |
| CCCCCCCCCCCCCC[N+](C)(C)Cc1ccccc1 [Benzyldimethyltetradecylammonium chloride dihydrate] | 2.05 |
| CCCCCCCCCCCCCCCC[N+](C)(C)Cc1ccccc1 [Benzylhexadecyldimethylammonium chloride] | 3.94 |
| c1ccc(C[P+](c2ccccc2)(c2ccccc2)c2ccccc2)cc1 [Benzyltriphenylphosphonium chloride] | 2.27 |
| O=c1[nH]c2ccc([S+]([O-])CCN3CCC(Cc4ccc(F)cc4)CC3)cc2o1 (stereo not drawn) [Besonprodil] | 4.36 |
| COC(=O)c1cc(Oc2ccc(Cl)cc2Cl)ccc1[N+](=O)[O-] [Bifenox] | 23.6 |
| c1ccc(-c2ccc(C(c3ccccc3)n3ccnc3)cc2)cc1 (stereo not drawn) [Bifonazole] | 12.5 |
| CCOCCn1c(C2CCN(CCc3ccc(C(C)(C)C(=O)O)cc3)CC2)nc2ccccc21 [Bilastine] | 10.1 |
| CCC(C)c1cc([N+](=O)[O-])cc([N+](=O)[O-])c1OC(=O)C=C(C)C (stereo not drawn) [Binapacryl] | 30.9 |
| O=C1CC2(CCCC2)CC(=O)N1CCNCC1COc2ccccc2O1 (stereo not drawn) [Binospirone mesylate] | 19 |
| CCCCOCCOC(=O)c1ccccc1C(=O)OCCOCCCC [Bis(2-butoxyethyl) phthalate] | 20.2 |
| CN(C)c1ccc(C(=O)c2ccc(N(C)C)cc2)cc1 [Bis(4-(dimethylamino)phenyl)methanone] | 57.1 |
| Oc1ccc(C(=C(Cl)Cl)c2ccc(O)cc2)cc1 [Bis(4-hydroxyphenyl)-2,2-dichloroethylene] | 47 |
| CN(C)C(=S)SSC(=S)N(C)C [Bis(dimethylaminothiocarbonyl) disulfide] | 22.1 |
| O=S(=O)(C(Cl)(Cl)Cl)C(Cl)(Cl)Cl [Bis(trichloromethyl)sulfone] | 18.8 |
| O=C1C=CC(=O)N1c1ccc(Cc2ccc(N3C(=O)C=CC3=O)cc2)cc1 [Bismaleimide] | 43.6 |
| Oc1ccc(C(c2ccc(O)cc2)(C(F)(F)F)C(F)(F)F)cc1 [Bisphenol AF] | 43.4 |

| SMILES | IC50 [µM] |
| --- | --- |
| Cc1ccc(C(=O)Oc2ccc(C(O)CNC(C)(C)C)cc2OC(=O)c2ccc(C)cc2)cc1 (stereo not drawn) [Bitolterol] | 5.78 |
| CCN1CCN(c2cc(-c3ccc(F)cc3)c3c(n2)CCCCCC3)CC1 [Blonanserin] | 3.99 |
| Cc1cc2c(OCC(CNC(C)(C)C)OC(=O)c3ccccc3)cccc2[nH]1 (stereo not drawn) [Bopindolol] | 21.3 |
| CN(Cc1cc(Br)cc(Br)c1N)C1CCCCC1 [Bromhexine hydrochloride] | 12.5 |
| CN(C)CCOC(c1ccccc1)c1ccc(Br)cc1 (stereo not drawn) [Bromodiphenhydramine] | 4.09 |
| CCCCCCCC(=O)Oc1c(Br)cc(C#N)cc1Br [Bromoxynil octanoate] | 26.4 |
| CC(C)(Cc1c[nH]c2ccccc12)NCC(O)COc1ccccc1C#N (stereo not drawn) [Bucindolol] | 8.49 |
| Cc1ccc(Cl)c(OCC(O)CNC(C)(C)C)c1 (stereo not drawn) [Bupranolol] | 20.1 |
| CC(C)N1C(=O)N(c2ccccc2)CS/C1=N\C(C)(C)C [Buprofezin] | 19.5 |
| CCCCN(CCCC)CCCOC(=O)c1ccc(N)cc1 [Butacaine] | 14.5 |
| CN(Cc1ccc(C(C)(C)C)cc1)Cc1cccc2ccccc12 [Butenafine] | 12 |
| OC(C#CCN1CCCC1)(c1ccccc1)c1ccccc1 [Butinoline] | 19 |
| Clc1ccc(CCC(Cn2ccnc2)Sc2c(Cl)cccc2Cl)cc1 (stereo not drawn) [Butoconazole nitrate] | 5.35 |
| CCC(C)Nc1c([N+](=O)[O-])cc(C(C)(C)C)cc1[N+](=O)[O-] (stereo not drawn) [Butralin] | 23.6 |
| CC(CC1c2ccccc2CCc2ccccc21)CN(C)C (stereo not drawn) [Butriptyline] | 16.9 |
| Cc1cc(C(C)(C)C)c(O)c(C(C)(C)C)c1 [Butylated hydroxytoluene] | 20.7 |
| CCCCOC(=O)COC(=O)c1ccccc1C(=O)OCCCC [Butylphthalyl butylglycolate] | 20.9 |
| Nc1ccc(N=Nc2ccccc2)c(N)c1 [C.I. Basic Orange 2] | 19.8 |
| Cc1cc(-c2ccc(N=Nc3cc(S(=O)(=O)O)c4ccccc4c3N)c(C)c2)ccc1N=Nc1cc(S(=O)(=O)O)c2ccccc2c1N [C.I. Direct Red 2] | 21.2 |
| O=C1c2c(O)ccc(Nc3ccc(CCO)cc3)c2C(=O)c2c([N+](=O)[O-])ccc(O)c21 [C.I. Disperse Blue 27] | 43.6 |
| CCN(CCC#N)c1ccc(N=Nc2c(Cl)cc([N+](=O)[O-])cc2Cl)cc1 [C.I. Disperse Orange 37] | 40.4 |

| SMILES | IC50 [µM] |
| --- | --- |
| CCCN(CCC)C(=O)CN [C.I. Solvent Black 5] | 9.21 |
| O=C1OC2(c3ccccc31)c1ccc(O)c(Br)c1Oc1c2ccc(O)c1Br [C.I. Solvent Red 72] | 34.7 |
| Cc1cc2c3c(c1)C(c1ccccc1)=N[C@@H](NC(=O)c1ccncc1)C(=O)N3CC2 [CI-1018] | 25.5 |
| Cc1nccn1-c1ccc(Sc2cccc(C3(C(N)=O)CCOCC3)c2)cc1 [CJ-013610] | 47.1 |
| NC(=O)N(O)[C@@H]1C=C[C@H](Oc2cccc(Oc3ccc(F)cc3)c2)C1 [CJ-013790] | 38.9 |
| CCOC(=O)NNc1ccc(N(CC)CC(C)O)nn1 (stereo not drawn) [Cadralazine] | 23.9 |
| CCN(CC)CCNC(C(=O)OCCC(C)C)c1ccccc1 (stereo not drawn) [Camylofin] | 6.74 |
| N#CC(C#N)=NNc1cccc(Cl)c1 [Carbonyl cyanide chlorophenylhydrazone] | 36 |
| CCOC(=O)C(Cl)Cc1cc(-n2nc(C)n(C(F)F)c2=O)c(F)cc1Cl (stereo not drawn) [Carfentrazone-ethyl] | 28.6 |
| COc1ccc2cc1Oc1ccc(cc1)C[C@H]1c3c(cc4c(c3Oc3cc5c(cc3OC)CCN(C)[C@@H]5C2)OCO4)CCN1C [Cepharanthine] | 10.3 |
| ClC1=C(Cl)C2(Cl)C3C(Cl)C(Cl)CC3C1(Cl)C2(Cl)Cl (stereo not drawn) [Chlordane] | 30.9 |
| CCOP(=S)(OCC)OC(Cl)C(Cl)(Cl)Cl (stereo not drawn) [Chlorethoxyfos] | 25.5 |
| CCOCn1c(-c2ccc(Cl)cc2)c(C#N)c(Br)c1C(F)(F)F [Chlorfenapyr] | 15.5 |
| CC(O)(c1ccc(Cl)cc1)c1ccc(Cl)cc1 [Chlorfenethol] | 46.2 |
| CCOC(=O)C(O)(c1ccc(Cl)cc1)c1ccc(Cl)cc1 [Chlorobenzilate] | 33.7 |
| CC(C)OC(=O)C(O)(c1ccc(Cl)cc1)c1ccc(Cl)cc1 [Chloropropylate] | 22.7 |
| CN(C)CCN(Cc1ccc(Cl)cc1)c1ccccn1 [Chloropyramine hydrochloride] | 2.39 |
| C[C@@H](NCCCc1cccc(C(F)(F)F)c1)c1cccc2ccccc12 [Cinacalcet hydrochloride] | 12 |
| CC(C(O)c1ccccc1)N(C)C/C=C/c1ccccc1 (stereo not drawn) [Cinnamedrine] | 12 |
| COc1cc(N)c(Cl)cc1C(=O)NC1CCN(Cc2ccccc2)CC1 [Clebopride maleate] | 15.7 |
| Clc1ccc(Cn2c(CN3CCCC3)nc3ccccc32)cc1 [Clemizole hydrochloride] | 1.34 |
